# Measured values taken from patent US12077503B2, “Substituted cyclic amides and their use as herbicides” (FMC CORPORATION, priority 2015, dated 2024).
# How the values were obtained:
# Assay type in all cases: in vivo
# [1] = system: ducksalad (Heteranthera limosa); test: Test B flooded paddy test; settings: Heteranthera limosa, 250 g ai/ha, Flood; 0 to 100 scale where 0 is no effect and 100 is complete control; read-out: Ducksalad plant response rating
# Method in brief: (§1)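 Compound goes directly into floodwater once pots are flooded 3 cm above soil, targeting plants at two leaves; the water depth is then held for the test duration. Plants sit 13–15 d in a greenhouse and are rated visually, 100 denoting complete control.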
# rice (Oryra sativa) = test: Test B flooded paddy test; settings: Oryza sativa, 250 g ai/ha, Flood; 0 to 100 scale where 0 is no effect and 100 is complete control; read-out: Rice plant response rating
# Method in brief: as §1
# [2] = system: sedge, umbrella (small-flower umbrella sedge, Cyperus difformis); test: Test B flooded paddy test; settings: Cyperus difformis, 250 g ai/ha, Flood; 0 to 100 scale where 0 is no effect and 100 is complete control; read-out: Sedge, Umbrella plant response rating
# Method in brief: as §1
# [3] = system: barnyardgrass (Echinochloa crus-galli); test: Test B flooded paddy test; settings: Echinochloa crus-galli, 250 g ai/ha, Flood; 0 to 100 scale where 0 is no effect and 100 is complete control; read-out: Barnyardgrass plant response rating
# Method in brief: as §1
# [4] = system: ragweed (common ragweed, Ambrosia elatior); test: Test A preemergence; settings: Ambrosia artemisiifolia, pre-emergence, 240 h, preemergence, 0 to 100 scale where 0 is no effect and 100 is complete control, read-out: Ragweed plant response rating; for pest or weed control at 125 g/ha: 125 g ai/ha, approx. 10 d; for pest or weed control at 500 g/ha: 500 g ai/ha
# Method in brief: (§2)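 Each rating is a visual injury score from 0 to 100 given about 10 d after treatment, judged against untreated controls kept alongside in the greenhouse. In loam soil–sand blend, seeds got a preemergence directed soil spray, while postemergence plants were 2 to 10 cm tall at spraying.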
# [5] = system: ryegrass, Italian (Italian ryegrass, Lolium multiflorum); test: Test A preemergence; settings: Lolium multiflorum, pre-emergence, 240 h, preemergence, 0 to 100 scale where 0 is no effect and 100 is complete control, read-out: Ryegrass, Italian plant response rating; for pest or weed control at 125 g/ha: 125 g ai/ha, approx. 10 d; for pest or weed control at 500 g/ha: 500 g ai/ha
# Method in brief: as §2
# Kochia (Kochia scoparia) [6] = test: Test A preemergence; settings: Bassia scoparia, pre-emergence, 240 h, preemergence, 0 to 100 scale where 0 is no effect and 100 is complete control, read-out: Kochia plant response rating; for pest or weed control at 125 g/ha: 125 g ai/ha, approx. 10 d; for pest or weed control at 500 g/ha: 500 g ai/ha
# Method in brief: as §2
# [7] = system: giant foxtail (Setaria faberii); test: Test A preemergence; settings: Setaria faberi, pre-emergence, 240 h, preemergence, 0 to 100 scale where 0 is no effect and 100 is complete control, read-out: Foxtail, Giant plant response rating; for pest or weed control at 125 g/ha: 125 g ai/ha, approx. 10 d; for pest or weed control at 500 g/ha: 500 g ai/ha
# Method in brief: as §2
# [8] = system: pigweed (Amaranthus retroflexus); test: Test A preemergence; settings: Amaranthus retroflexus, pre-emergence, 240 h, preemergence, 0 to 100 scale where 0 is no effect and 100 is complete control, read-out: Pigweed plant response rating; for pest or weed control at 125 g/ha: 125 g ai/ha, approx. 10 d; for pest or weed control at 500 g/ha: 500 g ai/ha
# [9] = system: barnyardgrass (Echinochloa crus-galli); test: Test A preemergence; settings: Echinochloa crus-galli, pre-emergence, 240 h, preemergence, read-out: Barnyardgrass plant response rating; for pest or weed control at 125 g/ha: 125 g ai/ha, approx. 10 d; for pest or weed control at 500 g/ha: 500 g ai/ha
# Method in brief: as §2
# [10] = system: ragweed (common ragweed, Ambrosia elatior); test: Test A postemergence; settings: Ambrosia artemisiifolia, post-emergence, 240 h, postemergence, read-out: Ragweed plant response rating; for pest or weed control at 125 g/ha: 125 g ai/ha, visual injury on 0 to 100 scale (0 no effect, 100 complete control), approx. 10 d; for pest or weed control at 500 g/ha: 500 g ai/ha, 0 to 100 scale, 0 is no effect, 100 is complete control
# Method in brief: as §2
# Kochia (Kochia scoparia) [11] = test: Test A postemergence; settings: Bassia scoparia, post-emergence, 240 h, postemergence, read-out: Kochia plant response rating; for pest or weed control at 125 g/ha: 125 g ai/ha, visual injury on 0 to 100 scale (0 no effect, 100 complete control), approx. 10 d; for pest or weed control at 500 g/ha: 500 g ai/ha, 0 to 100 scale, 0 is no effect, 100 is complete control
# Method in brief: as §2
# [12] = system: giant foxtail (Setaria faberii); test: Test A postemergence; settings: Setaria faberi, post-emergence, 240 h, postemergence, read-out: Foxtail, Giant plant response rating; for pest or weed control at 125 g/ha: 125 g ai/ha, visual injury on 0 to 100 scale (0 no effect, 100 complete control), approx. 10 d; for pest or weed control at 500 g/ha: 500 g ai/ha, 0 to 100 scale, 0 is no effect, 100 is complete control
# Method in brief: as §2
# [13] = system: barnyardgrass (Echinochloa crus-galli); test: Test A postemergence; settings: Echinochloa crus-galli, post-emergence, 240 h, postemergence, read-out: Barnyardgrass plant response rating; for pest or weed control at 125 g/ha: 125 g ai/ha, visual injury on 0 to 100 scale (0 no effect, 100 complete control), approx. 10 d; for pest or weed control at 500 g/ha: 500 g ai/ha, 0 to 100 scale, 0 is no effect, 100 is complete control
# Method in brief: as §2
# [14] = 0 to 100 scale where 0 is no effect and 100 is complete control
# [15] = visual injury rating about 10 d after treatment, 0 to 100 scale (0 no effect, 100 complete control)
SMILES,pest or weed control at 250 g/ha [1] [%],pest or weed control at 250 g/ha (rice (Oryra sativa)) [%],pest or weed control at 250 g/ha [2] [%],pest or weed control at 250 g/ha [3] [%],pest or weed control at 125 g/ha [4] [%],pest or weed control at 500 g/ha [4] [%],pest or weed control at 125 g/ha [5] [%],pest or weed control at 500 g/ha [5] [%],pest or weed control at 125 g/ha (Kochia (Kochia scoparia) [6]) [%],pest or weed control at 500 g/ha (Kochia (Kochia scoparia) [6]) [%],pest or weed control at 125 g/ha [7] [%],pest or weed control at 500 g/ha [7] [%],pest or weed control at 125 g/ha [8] [%],pest or weed control at 500 g/ha [8] [%],"pest or weed control at 125 g/ha [9, 14] [%]",pest or weed control at 125 g/ha [10] [%],pest or weed control at 500 g/ha [10] [%],pest or weed control at 125 g/ha (Kochia (Kochia scoparia) [11]) [%],pest or weed control at 500 g/ha (Kochia (Kochia scoparia) [11]) [%],pest or weed control at 125 g/ha [12] [%],also measured
CN1C[C@H](c2cscn2)[C@@H](C(=O)Nc2ccccc2F)C1=O [Compound 1112],0,15,40,0,0,0,0,0,0,0,0,0,0,0,0,0,0,0,0,0,"pest or weed control at 500 g/ha [9, 15]: 0%; pest or weed control at 500 g/ha [12]: 0%; pest or weed control at 125 g/ha [13]: 0%; pest or weed control at 500 g/ha [13]: 0%"
CN1C[C@H](c2cc(C(F)F)cs2)[C@@H](C(=O)Nc2ccccc2F)C1=O [Compound 1120],100,20,0,65,40,50,20,40,40,70,90,100,0,50,90,0,50,20,70,90,"pest or weed control at 500 g/ha [9, 15]: 100%; pest or weed control at 500 g/ha [12]: 90%; pest or weed control at 125 g/ha [13]: 90%; pest or weed control at 500 g/ha [13]: 90%"
CSc1ccccc1NC(=O)[C@H]1C(=O)NC[C@@H]1c1cc(F)c(F)c(F)c1 [Compound 1124],95,0,0,0,0,60,0,30,70,90,90,90,50,70,60,0,50,60,70,60,"pest or weed control at 500 g/ha [9, 14]: 90%; pest or weed control at 500 g/ha [12]: 90%; pest or weed control at 125 g/ha [13]: 60%; pest or weed control at 500 g/ha [13]: 90%"
